Test system: tyrosinase
Test: Tyrosinase inhibition, absorbance of Dopa-Chroma at 475 nm
Type: biochemical, mushroom
Conditions: for Inhibition (%): Inhibitory agent 0.15mg/ml, tyrosine substrate, 30 minutes at 37° C.; for Relative strength of tyrosinase inhibition among the catechins: comparison of the catechins of Table 1
Procedure: The level of tyrosinase, inhibition was measured according to the following method.
50 μl of the enzyme (8300 U/ml) (Source:mushroom, SIGMA) was added to a mixture of 250 μl of tyrosine substrate solution (0.3 mg/ml), 250 μl of the inhibiting (polyphenol) solution (0.5 mg/ml), 250 μl of Macllvain buffer solution and left for 30 minutes at 37° C. After this time the absorbance of the red colored Dopa-Chroma formed was measured at 475 nm.
Inhibition(%)=[(A-B)-(C-D)]/(A-B)×100
Where A, B, C, D represent the absorbance of solutions A, B, C and D as defined below, measured at 475 nm respectively.
A is the tyrosine+enzyme solution
B is the tyrosine solution
C is the tyrosine+enzyme+polyphenol solution
D is the tyrosine+polyphenol solution

Inhibition (%)	SMILES	Relative strength of tyrosinase inhibition among the catechins
11.9%	Oc1cc(O)c2c(c1)O[C@H](c1ccc(O)c(O)c1)[C@H](O)C2 [Epicatechin, (-)Epicatechin]	
17.5%	Oc1cc(O)c2c(c1)O[C@H](c1cc(O)c(O)c(O)c1)[C@H](O)C2 [Epigallocatechin, (-)Epigallocatechin]	
95.1%	O=C(O[C@@H]1Cc2c(O)cc(O)cc2O[C@@H]1c1ccc(O)c(O)c1)c1cc(O)c(O)c(O)c1 [Epicatechin gallate, (-)Epicatechin gallate]	strongest inhibitors of tyrosinase

SMILES	Inhibition (%)	Relative strength of tyrosinase inhibition among the catechins
O=C(O[C@@H]1Cc2c(O)cc(O)cc2O[C@@H]1c1cc(O)c(O)c(O)c1)c1cc(O)c(O)c(O)c1 [Epigallocatechin gallate, (-)Epigallocatechin gallate]	79.5%	strongest inhibitors of tyrosinase

From patent US5670154A, “Reducing tyrosinase activity” (priority 1994, dated 1997)
